From paper PMC4411898, “Impact of kinesin Eg5 inhibition by 3,4-dihydropyrimidin-2(1H)-one derivatives on various breast cancer cell features” (BMC Cancer, 2015)

Columns and labels:
[1] = system: MDA-MB-231 cells; experiment: CFSE proliferation assay, MDA-MB-231; type: cell-based, human; conditions: 72 h, IC50 concentration of each compound
Method: (§1) For proliferation assays, cells were treated with IC50 concentrations of each compound. Adherent and floating cells were harvested at the same tube and pelleted by centrifugation at 300 g for 5 minutes and stained. Data acquisition of these two fractions put together was performed on a FACSCalibur flow cytometer using CellQuest software and analysed using the FloJo Software. […] After adhesion, cells were treated with DHPMs or maintained in culture medium only (control) for 72 h. The percentage of proliferative cells was calculated based on the CFSE fluorescence profile analysis of the tested samples compared to that of the fixed undivided control cells (treated with 10 μM of colchicine) using the FlowJo software.

[2] = system: MCF-7 cells; experiment: DAPI staining and transmission electron microscopy analysis; type: cell-based, human; conditions: MCF-7, 4p 0.4 mM, 24 h (DAPI) or 48 h (TEM)
Method: Aliquots of 8 × 10^5 MCF-7 cells were seeded in 12-well plates and ultra-structural analysis performed on controls or after 48 h of treatment with 4p (0.4 mM). Cells were washed twice with PBS and fixed overnight with glutaraldehyde (2.5%) at 4°C. Cells were subsequently washed with 0.1 M sodium cacodylate buffer (pH 7.2) and post-fixed in 1% osmium tetroxide and 0.8% potassium ferricyanide (10 mM CaCl2 in 0.2 M sodium cacodylate buffer). Samples were washed twice with 0.1 M sodium cacodylate buffer (pH 7.2) and in-block staining was performed for 16 h with 0.5% uranyl acetate at 4°C. Cells were dehydrated in a graded acetone series (50-100%) and embedded in Spurr resin.
Cells were analyzed under a laser scanning confocal microscope. B, MCF-7 cells control or treated with 4p (0.4 mM) for 24 h had their nucleus stained with DAPI (left panels) or were processed and analyzed by Transmission Electron Microscopy after exposure to 4p (0.4 mM) for 48 h (right panels).

[3] = system: Fibroblasts (primary culture from healthy human dental pulp); conditions: fibroblasts, 72 h treatment, MTT
Method: MCF-7 cell line and primary culture of connective tissue cells were provided by the Laboratory of Morphology, University of Brasília (Brasília, BR). MDA-MB-231 cells were purchased from Rio de Janeiro Cell Bank (RJCB - Rio de Janeiro, BR). Cell line characterization and authentication was conducted by RJCB using short tandem repeat profiling. Primary culture cells were taken from healthy human dental pulp predominantly consisting of fibroblasts and were used as normal control cells. MCF-7 cells and fibroblasts were grown in complete DMEM and maintained at 37°C with 5% CO2. MDA-MB-231 cells were grown in Leibovitz L15 medium at 37°C without CO2. Culture media were supplemented with 10% fetal bovine serum and 25 μg/mL of gentamicin.
Cytotoxicity was determined using 3-(4,5-dimethylthiazol-2-yl)-2,5-diphenylterazolium bromide (MTT) according to the manufacturer’s instructions. Absorbance readings were measured by a spectrophotometer. Cell viability was normalized to control (vehicle only).

[4] = system: MCF-7 cells; experiment: MTT cell viability assay, MCF-7; type: cell-based, human; conditions: for IC50: 72 h treatment, MTT, read-out: IC50 MCF-7; for Effect on cell viability, MCF-7: all concentrations tested 100 μM – 1.00 mM, 72 h
Method: Absorbance readings were measured by a spectrophotometer. Cell viability was normalized to control (vehicle only).

[5] = system: MCF-7 cells; experiment: Cell cycle analysis (PI), MCF-7; type: cell-based, human; conditions: 4m 1 mM, 4bt 0.8 mM, 4p 0.4 mM, 4bc 1.0 mM, 4x 0.8 mM
Method: For proliferation assays, cells were treated with IC50 concentrations of each compound. Adherent and floating cells were harvested at the same tube and pelleted by centrifugation at 300 g for 5 minutes and stained. Data acquisition of these two fractions put together was performed on a FACSCalibur flow cytometer using CellQuest software and analysed using the FloJo Software. Control and DHPM-treated cells were harvested at 24, 48 and 72 h, resuspended in ice-cold PBS and fixed with 70% ethanol on ice. Cells were then washed with PBS, harvested and incubated with propidium iodide solution (0.1% Triton X-100, 10 μg/mL propidium iodide, 100 μg/mL DNase free RNase) for 10 min at 37°C. For analysis of cell populations in each cell cycle phase, the sub-G1 picks were excluded and the plots were generated by cell cycle platform data analysis by the FlowJo Software.

[6] = system: MCF-7 cells; experiment: Morphological alterations under inverted light microscope, MCF-7; type: cell-based, human; conditions: 72 h, maximum non-cytotoxic concentration to normal cells
Method: Figure 2 DHPM derivatives cause severe morphological alterations on breast cancer cells. MCF-7 and MDA-MB-231 cells were treated with the maximum non-cytotoxic concentration to normal cells for 72 h and morphological alterations analyzed under an inverted light microscope. Cells with elongated morphology, adherent to the surface and normal size are shown by arrows. Cells with size reduction, absence of focal adhesion points, rounded morphology and detached from the surface where they had been seeded are shown by arrowheads.

[7] = system: MCF-7 cells; experiment: CD44+/CD24- expression analysis, MCF-7; type: cell-based, human; conditions: 24 h; for CD44-/CD24- subpopulation, MCF-7 (mean ± SEM): 4m 1.0 mM, 4bt 0.8 mM, 4p 0.4 mM, 4bc 1.0 mM, 4x 0.8 mM, monastrol 1.0 mM; for CD44+/CD24+ subpopulation, MCF-7 (mean ± SEM) / CD44-/CD24+ subpopulation, MCF-7 (mean ± SEM) / CD44+/CD24- subpopulation, MCF-7 (mean ± SEM): concentrations as E28; for CD44+/CD24- subpopulation, MCF-7 (mean ± SEM): control 0.38 ± 0.18
Method: For proliferation assays, cells were treated with IC50 concentrations of each compound. Adherent and floating cells were harvested at the same tube and pelleted by centrifugation at 300 g for 5 minutes and stained. Data acquisition of these two fractions put together was performed on a FACSCalibur flow cytometer using CellQuest software and analysed using the FloJo Software. Expression level of CD44 and CD24 in treated and control MCF-7 or MDA-MB-231 cells was measured after 24 h of treatment.

[8] = system: MCF-7 cells; experiment: CFSE proliferation assay, MCF-7; type: cell-based, human; conditions: 72 h, IC50 concentration of each compound
Method: as §1

[9] = system: HUVEC cells; experiment: HUVEC tube formation assay; type: cell-based, human; conditions: 11 h; 30 μM, IC50 or 300 μM, mainly 300 μM
Method: The anti-angiogenic potential of DHPMs was tested using an in vitro Angiogenesis Assay Kit according to the manufacturer’s instructions. […] These plates were incubated for 11 hours at 37°C, in 5% CO2. Wells were subsequently photographed using an inverted light microscope at 20x magnification and tube formation analyzed. Seven fields per group of 3 independent experiments were quantified by pattern recognition according to manufacturer’s instructions.

Structure (SMILES) | Inhibition of cell proliferation, MDA-MB-231 [1] | Cell phenotype by DAPI staining and TEM [2] | Maximum non-cytotoxic concentration to normal cells [3] [mM] | IC50 [4] [µM] | Effect on cell viability, MCF-7 [4] | Cell cycle effect, MCF-7, 48 h [5] | Morphological alterations, MCF-7 [6] | CD44-/CD24- subpopulation, MCF-7 (mean ± SEM) [7] [%] | CD44+/CD24+ subpopulation, MCF-7 (mean ± SEM) [7] [%] | CD44-/CD24+ subpopulation, MCF-7 (mean ± SEM) [7] [%] | CD44+/CD24- subpopulation, MCF-7 (mean ± SEM) [7] [%] | Inhibition of cell proliferation, MCF-7 [8] | HUVEC tube formation (pattern recognition / morphology) [9]
CCOC(=O)C1=C(C)NC(=S)NC1c1ccccc1O (stereo not shown) [Compound 4p] | Approximately 50% | mitotic catastrophe phenotype | 0.4 | 87.5 | significant decrease in cell viability | cell cycle arrest at G2/M | produced the same results | 2.83 ± 0.59 | 30.40 ± 9.78 | 66.42 ± 10.57 | 0.33 ± 0.20 | Approximately 50% | more pronounced anti-angiogenic morphological aspect
CC(=O)C1=C(C)NC(=O)NC1c1ccccc1[N+](=O)[O-] (stereo not shown) [Compound 4x] | – | – | 0.8 | 276 | significant decrease in cell viability | cell cycle arrest at G2/M | no significant alterations | 2.45 ± 0.52 | 35.11 ± 19.33 | 61.35 ± 20.83 | 1.065 ± 0.97 | – | –
